# According to patent publication US10981932B2, “Macrocyclic indole derivatives” (Bayer Aktiengesellschaft, priority 2016, dated 2021):
# Read-outs that look alike come from different tables or passages of the source.
# Key:
# MCL-1 = MCL-1 (Homo sapiens, UniProt Q07820); test: Protein-protein interaction assay MCL-1/Noxa BH3 peptide (MCL-1 assay), TR-FRET; type: binding; conditions: MBP-MCL-1 / Noxa BH3-derived peptide, median
# In short: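 MBP-MCL-1 (1 nM final) was preincubated 10 min at 22 °C with compounds (11 concentrations, 0.1 nM–20 μM, duplicates) in Tris pH 7 buffer with NaCl, KF, Tween-20, DTT and BGG. After 1 h at 22 °C in the dark plus overnight at 4 °C, anti-MBP Eu-cryptate/streptavidin-XL665 TR-FRET was read; IC50 came from a 4-parameter fit.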
# SUDHL10 [1] = test: Induction of caspase-3/7 activity (Caspase-Glo 3/7), SUDHL10; type: cell-based; conditions: caspase-3/7 induction, SUDHL10 cells, 3 h treatment, median
# In short: (§1)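 Caspase-Glo 3/7 luminescence measured after 3 h compound exposure at 37 °C in SUDHL10 and SUDHL5 cells. EC50 values come from background-corrected signals, with curve bottom set to 1 and plateau set to maximal induction by the reference compound.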
# SUDHL5 [2] = test: Anti-proliferative effect (CellTiter-Glo, 72 h), SUDHL5; type: cell-based; conditions: SUDHL5 cells, antiproliferation, 72 h incubation, median, read-out: Antiproli SUDHL5 [M] (median)
# In short: (§2)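 CellTiter-Glo luminescence readout of viability, taken on a time-zero plate at day 0 and on treated plates after 72 h incubation at 37 °C in a humidified incubator. Reagent incubation 10 min before reading.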
# SUDHL10 [3] = test: Anti-proliferative effect (CellTiter-Glo, 72 h), SUDHL10; type: cell-based; conditions: SUDHL10 cells, antiproliferation, 72 h incubation, median, read-out: Antiproli SUDHL10 [M] (median)
# In short: as §2
# SUDHL5 [4] = test: Induction of cytotoxicity (CellTiter-Glo, 5 h), SUDHL5
# OPM2 = test: Anti-proliferative effect (CellTiter-Glo, 72 h), OPM2; type: cell-based; conditions: OPM2 cells, median, read-out: IC50 antiproliferation assay OPM2 [M] (median)
# In short: as §2
# SUDHL10 [5] = test: Induction of cytotoxicity (CellTiter-Glo, 5 h), SUDHL10
# A2780 = test: Anti-proliferative effect (CellTiter-Glo, 72 h), A2780; type: cell-based; conditions: A2780 cells, median, read-out: IC50 antiproliferation assay A2780 [M] (median)
# In short: as §2
# SUDHL5 [6] = test: Induction of caspase-3/7 activity (Caspase-Glo 3/7), SUDHL5; type: cell-based; conditions: caspase-3/7 induction, SUDHL5 cells, 3 h treatment, median
# In short: as §1
# [7] = Homo sapiens, SU-DHL-5, 5 h, read-out: Cytotox SUDHL5 [M] (median), SUDHL5 cells, cytotoxicity induction, CellTiter-Glo, 5 h incubation, median
# [8] = Homo sapiens, SU-DHL10, 5 h, read-out: Cytotox SUDHL10 [M] (median), SUDHL10 cells, cytotoxicity induction, CellTiter-Glo, 5 h incubation, median
# [9] = read-out: Cytotox SUDHL5 [M] (median), SUDHL5 cells, cytotoxicity induction, CellTiter-Glo, 5 h incubation, median
# [10] = read-out: Cytotox SUDHL10 [M] (median), SUDHL10 cells, cytotoxicity induction, CellTiter-Glo, 5 h incubation, median
# MCL-1, sequence (Q07820 whole entry): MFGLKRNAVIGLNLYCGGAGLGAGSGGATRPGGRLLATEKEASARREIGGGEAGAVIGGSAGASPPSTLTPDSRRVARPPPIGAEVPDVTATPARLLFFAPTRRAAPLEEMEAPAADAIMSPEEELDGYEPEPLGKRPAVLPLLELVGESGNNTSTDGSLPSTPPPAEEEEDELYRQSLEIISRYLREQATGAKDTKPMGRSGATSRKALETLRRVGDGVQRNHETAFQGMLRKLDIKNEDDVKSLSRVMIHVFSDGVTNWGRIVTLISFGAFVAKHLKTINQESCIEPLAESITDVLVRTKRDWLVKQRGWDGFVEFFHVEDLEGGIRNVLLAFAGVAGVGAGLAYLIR
SMILES,IC50 (MCL-1) [µM],"EC50 (SUDHL10 [1]; Homo sapiens, SU-DHL10, 3 h) [µM]","IC50 (SUDHL5 [2]; Homo sapiens, SU-DHL-5, 72 h) [M]","IC50 (SUDHL10 [3]; Homo sapiens, SU-DHL10, 72 h) [M]","IC50 (A2780; Homo sapiens, A2780, 72 h) [M]","EC50 (SUDHL5 [6]; Homo sapiens, SU-DHL-5, 3 h) [µM]",EC50 (SUDHL10 [1]) [µM],IC50 (SUDHL5 [2]) [M],IC50 (SUDHL10 [3]) [M],IC50 (A2780) [M],EC50 (SUDHL5 [6]) [µM],IC50 (SUDHL5 [4]; [7]) [M],"IC50 (OPM2; Homo sapiens, OPM-2, 72 h) [M]",IC50 (SUDHL10 [5]; [8]) [M],IC50 (SUDHL5 [4]; [9]) [M],IC50 (OPM2) [M],IC50 (SUDHL10 [5]; [10]) [M]
"CN1CCCn2c(C(=O)O)c(CCCOc3cccc4ccccc34)c3cccc(c32)-c2c(CCN3CCOCC3)nn(C)c2C1 (racemic) [Example 124, (rac)-7,9-dimethyl-11-[2-(morpholin-4-yl)ethyl]-1-[3-(naphthalen-1-yloxy)propyl]-4,5,6,7,8,9-hexahydropyrazolo[3′,4′:7,8][1,5]diazecino[9,10,1-hi]indole-2-carboxylic Acid]",0.0187,13.4,6.64e-06,3.05e-06,1.1e-05,11.2,–,–,–,–,–,1.71e-05,1.48e-05,1.61e-05,–,–,–
"Cn1nc(CN2CCOCC2)c2c1COCCCCn1c(C(=O)O)c(CCCOc3cccc4ccccc34)c3cccc-2c31 (racemic) [Example 135, (rac)-1-methyl-3-(morpholin-4-ylmethyl)-7-[3-(naphthalen-1-yloxy)propyl]-1,10,11,12,13,15-hexahydropyrazolo[4′,3′:9,10][1,6]oxazacycloundecino[8,7,6-hi]indole-8-carboxylic Acid]",0.0147,> 33,7.26e-06,1.01e-05,> 3.3e-05,12.1,–,–,–,–,–,1.06e-05,> 3.3e-05,> 3.3e-05,–,–,–
"Cn1nc(COc2ccc(S(C)(=O)=O)cc2)c2c1COCCCCn1c(C(=O)O)c(CCCOc3cccc4ccccc34)c3cccc-2c31 (single isomer, unassigned) [Example 1-55, (−)-1-methyl-3-{[4-(methylsulfonyl)phenoxy]methyl}-7-[3-(naphthalen-1-yloxy)propyl]-1,10,11,12,13,15-hexahydropyrazolo[4′,3′:9,10][1,6]oxazacycloundecino[8,7,6-hi]indole-8-carboxylic Acid]",0.167,–,–,–,2.59e-05,–,> 33,1.34e-05,9.09e-06,–,> 33,–,> 3.3e-05,1.73e-05,> 3.3e-05,–,–
"Cn1nc(COc2ccc(S(C)(=O)=O)cc2)c2c1COCCCCn1c(C(=O)O)c(CCCOc3cccc4ccccc34)c3cccc-2c31 (single isomer, unassigned) [Example 1-56, (+)-1-methy-3-{[4-(methylsulfonyl)phenoxy]methyl}-7-[3-(naphthalen-1-yloxy)propyl]-1,10,11,12,13,15-hexahydropyrazolo[4′,3′:9,10][1,6]oxazacycloundecino[8,7,6-hi]indole-8-carboxylic Acid]",0.00684,–,–,–,–,–,7.13,> 3.3e-06,> 3.3e-05,> 3.3e-05,5.7,–,–,–,5.72e-06,> 3.3e-05,2.95e-05
"CN1CCCn2c(C(=O)O)c(CCCOc3cccc4ccccc34)c3cccc(c32)-c2c(COc3ccc(C4CCOCC4)cc3)nn(C)c2C1 (single isomer, unassigned) [Example 1-58, (+)-7,9-dimethyl-1-[3-(naphthalen-1-yloxy)propyl]-11-{[4-(tetrahydro-2H-pyran-4-yl)phenoxy]methyl}-4,5,6,7,8,9-hexahydropyrazolo[3′,4′:7,8][1,5]diazecino[9,10,1-hi]indole-2-carboxylic Acid]",0.0189,17.3,1.17e-05,7.32e-06,1.31e-05,12.2,–,–,–,–,–,1.2e-05,2.01e-05,2.14e-05,–,–,–
"CN1CCCn2c(C(=O)O)c(CCCOc3cccc4ccccc34)c3cccc(c32)-c2c(COc3ccc(C4CCOCC4)cc3)nn(C)c2C1 (single isomer, unassigned) [Example 1-59, (−)-7,9-dimethyl-1-[3-(naphthalen-1-yloxy)propyl]-11-{[4-(tetrahydro-2H-pyran-4-yl)phenoxy]methyl}-4,5,6,7,8,9-hexahydropyrazolo[3′,4′:7,8][1,5]diazecino[9,10,1-hi]indole-2-carboxylic Acid]",0.0938,–,–,–,–,–,15.1,1.06e-05,6.64e-06,1.16e-05,17.9,–,–,–,1.24e-05,1.26e-05,2.01e-05
"Cn1nc(COc2ccc(C3=CCOCC3)cc2)c2c1COCCCCn1c(C(=O)O)c(CCCOc3cccc4ccccc34)c3cccc-2c31 (single isomer, unassigned) [Example 1-62, 3-{[4-(3,6-dihydro-2H-pyran-4-yl)phenoxy]methyl}-1-methyl-7-[3-(naphthalen-1-yloxy)propyl]-1,10,11,12,13,15-hexahydropyrazolo[4′,3′:9,10][1,6]oxazacycloundecino[8,7,6-hi]indole-8-carboxylic Acid]",0.67,13.1,–,–,–,14.5,–,1.02e-05,3.36e-06,5.49e-06,–,1.2e-05,7.6e-06,–,–,–,1.96e-05
"Cn1nc(COc2ccc(C3=CCOCC3)cc2)c2c1COCCCCn1c(C(=O)O)c(CCCOc3cccc4ccccc34)c3cccc-2c31 (single isomer, unassigned) [Example 1-63, 3-{[4-(3,6-dihydro-2H-pyran-4-yl)phenoxy]methyl}-1-methyl-7-[3-(naphthalen-1-yloxy)propyl]-1,10,11,12,13,15-hexahydropyrazolo[4′,3′:9,10][1,6]oxazacycloundecino[8,7,6-hi]indole-8-carboxylic Acid]",0.00864,–,–,–,–,–,7.32,3.37e-06,7.77e-06,1.11e-05,7.66,–,–,–,6.23e-06,1.18e-05,7.04e-06

# Continued by falling IC50 (MCL-1), values first:
IC50 (MCL-1) [µM],"EC50 (SUDHL10 [1]; Homo sapiens, SU-DHL10, 3 h) [µM]","IC50 (SUDHL5 [2]; Homo sapiens, SU-DHL-5, 72 h) [M]","IC50 (SUDHL10 [3]; Homo sapiens, SU-DHL10, 72 h) [M]","IC50 (A2780; Homo sapiens, A2780, 72 h) [M]","EC50 (SUDHL5 [6]; Homo sapiens, SU-DHL-5, 3 h) [µM]",EC50 (SUDHL10 [1]) [µM],IC50 (SUDHL5 [2]) [M],IC50 (SUDHL10 [3]) [M],IC50 (A2780) [M],EC50 (SUDHL5 [6]) [µM],SMILES,IC50 (SUDHL5 [4]; [7]) [M],"IC50 (OPM2; Homo sapiens, OPM-2, 72 h) [M]",IC50 (SUDHL10 [5]; [8]) [M],IC50 (SUDHL5 [4]; [9]) [M],IC50 (OPM2) [M],IC50 (SUDHL10 [5]; [10]) [M]
0.0335,> 33,1.78e-05,6e-06,1.34e-05,25.4,–,–,–,–,–,"Cn1nc(CN2CCOCC2)c2c1COCC=CCn1c(C(=O)O)c(CCCOc3cccc4ccccc34)c3cccc-2c31 (racemic) [Example 132, (rac)-(E/Z)-1-methyl-3-(morpholin-4-ylmethyl)-7-[3-(naphthalen-1-yloxy)propyl]-1,10,13,15-tetrahydropyrazolo[4′,3′:9,10][1,6]oxazacycloundecino[8,7,6-hi]indole-8-carboxylic Acid]",2.81e-05,1.17e-05,1.69e-05,–,–,–
0.0193,–,–,–,–,–,9.54,3.91e-06,3.99e-06,6.4e-06,9.12,"CN1CCCn2c(C(=O)O)c(CCCOc3cccc4ccccc34)c3cccc(c32)-c2c(COc3ccc(N4CCN(S(C)(=O)=O)CC4)cc3)nn(C)c2C1 (single isomer, unassigned) [Example 1-47, (−)-7,9-dimethyl-11-({4-[4-(methylsulfonyl)piperazin-1-yl]phenoxy}methyl)-1-[3-(naphthalen-1-yloxy)propyl]-4,5,6,7,8,9-hexahydropyrazolo[3′,4′:7,8][1,5]diazecino[9,10,1-hi]indole-2-carboxylic Acid]",–,–,–,1.08e-05,8.35e-06,1.32e-05
0.0162,–,–,–,–,–,7.5,1.36e-05,7.2e-06,2.48e-05,10.2,"Cn1nc(COc2ccc(S(C)(=O)=O)cc2)c2c1COCC=CCn1c(C(=O)O)c(CCCOc3cccc4ccccc34)c3cccc-2c31 (single isomer, unassigned) [Example 1-53, (E/Z)-1-methyl-3-{[4-(methylsulfonyl)phenoxy]methyl}-7-[3-(naphthalen-1-yloxy)propyl]-1,10,13,15-tetrahydropyrazolo[4′,3′:9,10][1,6]oxazacycloundecino[8,7,6-hi]indole-8-carboxylic Acid]",–,–,–,6.49e-06,> 3.3e-05,7.89e-06
